Calls of active or inactive are those of the source. No cut-off for these calls is given here.
Columns and labels:
Cavia porcellus = organism: Cavia porcellus; experiment: Oral effective dose for guinea pig LTB4 induced intradermal chemotaxis; format: functional
[1] = target: Leukotriene B4 receptor 1 (Homo sapiens, UniProt Q15722); experiment: Inhibitory activity against leukotriene B4 receptor
Mus musculus [2] = experiment: Topical effective dose for TPA induced ear inflammation in the mouse; format: functional
Homo sapiens = organism: Homo sapiens; experiment: Compound was tested for inhibitory activity against leukotriene B4 induced neutrophil chemotaxis; format: functional
Rattus norvegicus = experiment: Tested for increase in fatty acyl Co-A activity in rats dosed for 7 days at a dose of 200 mg/kg/day; NS means no significant activity; format: functional, organism-based
Mus musculus [3] = organism: Mus musculus; experiment: Oral effective dose for TPA induced ear inflammation in the mouse; format: functional

Sequence of Leukotriene B4 receptor 1 (Q15722 whole entry): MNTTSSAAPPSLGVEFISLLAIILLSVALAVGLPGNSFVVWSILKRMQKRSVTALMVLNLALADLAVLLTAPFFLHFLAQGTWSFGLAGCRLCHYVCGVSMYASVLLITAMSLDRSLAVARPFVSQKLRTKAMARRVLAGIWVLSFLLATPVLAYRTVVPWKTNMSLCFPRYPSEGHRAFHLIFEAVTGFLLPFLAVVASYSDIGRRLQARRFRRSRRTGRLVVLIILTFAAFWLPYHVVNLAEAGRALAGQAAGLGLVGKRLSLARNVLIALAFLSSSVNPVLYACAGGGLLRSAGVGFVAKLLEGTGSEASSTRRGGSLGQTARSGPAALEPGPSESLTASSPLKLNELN

Row | IC50 [1] [nM] | IC50 (Homo sapiens) [nM] | SMILES | ED50 (Cavia porcellus) [mg/kg] | ED50 (Mus musculus [2]) [µg] | Activity (Rattus norvegicus) | ED50 (Mus musculus [3]) [mg/kg]
1 | 0.85 | 1.3 | CCCc1c(OCCCOc2ccc(C(=O)NC)c(OC)c2CCC)ccc2c1OC(C(=O)O)CC2 (centres undefined) |  |  |  | 
2 |  | 1 | CCCc1c(OCCCOc2ccc(C(C)=O)c(OC)c2CCC)ccc2c1OC(C(=O)O)CC2 (centres undefined) [SC-41390] | 1.7 | 1400 |  | 18
3 | 2.4 | 2.7 | CCCc1c(OCCCOc2ccc(C(N)=O)c(OC)c2CCC)ccc2c1OC(C(=O)O)CC2 (centres undefined) |  |  |  | 

Continued, compound first:

Row | SMILES | IC50 [1] [nM] | IC50 (Homo sapiens) [nM] | ED50 (Cavia porcellus) [mg/kg] | ED50 (Mus musculus [2]) [µg] | Activity (Rattus norvegicus) | ED50 (Mus musculus [3]) [mg/kg]
4 | CCCc1c(OCCCOc2ccc(C(=O)NC)c(OC)c2CC2CC2)ccc2c1O[C@@H](CCC(=O)O)CC2 | 8.5 | 10.7 | 0.2 | 1200 |  | 
5 | CCCc1c(OCCCOc2ccc(C(=O)NC(C)C)c(OC)c2CCC)ccc2c1OC(C(=O)O)CC2 (centres undefined) | 0.1 | 0.11 |  |  |  | 
6 | CCCc1c(OCCCOc2ccc(C(=O)N3CCCC3)c(OC)c2CCC)ccc2c1OC(C(=O)O)CC2 (centres undefined) | < 0.1 | < 0.16 |  |  |  | 
7 | CCCc1c(OCCCOc2ccc(C(=O)N(C)C)c(OC)c2CCC)ccc2c1OC(C(=O)O)CC2 (centres undefined) | 0.15 | < 0.14 |  |  |  | 
8 | CCCc1c(OCCCOc2ccc(C(=O)NC)c(OC)c2CC2CC2)ccc2c1O[C@H](CCC(=O)O)CC2 | 14.5 | 24.4 | 0.07 | 200 | inactive | < 2.5
9 | CCCCC/C=C\C[C@@H](O)/C=C/C=C/C=C\[C@@H](O)CCCC(=O)O [LEUKOTRIENE_B4] |  | 1.79 |  |  |  | 
10 | CCCc1c(OCCCOc2ccc(C(=O)NC)c(OC)c2CC2CC2)ccc2c1OC(CCC(=O)O)CC2 (centres undefined) | 10.9 | 21.9 |  |  |  | 
11 | CCCc1c(OCCCOc2ccc(C(=O)NC)c(OC)c2CC2CC2)ccc2c1OC(C(=O)O)CC2 (centres undefined) | 5.3 | 13 |  |  |  | 
